# Paper PMC2581485, “Ca^2+ Signaling Occurs via Second Messenger Release from Intraorganelle Synthesis Sites” (Current Biology, 2008)
# Assays:
# recombinant ARCβ = target: T1, recombinant ARCβ (Strongylocentrotus purpuratus, UniProt A5HNF4); test: radiometric TLC of […]cADPR formation; format: biochemical; conditions: 16 nM substrate; labelled compound; 1 h, 20 °C; pH varied, acidic pH preferred
# T1 construct: gene ARCB
# recombinant ARCα = target: T2, recombinant ARCα (Strongylocentrotus purpuratus, UniProt A5HNF3); test: radiometric TLC of […]cADPR formation; format: biochemical; conditions: 16 nM substrate; labelled compound; 1 h, 20 °C; pH varied, acidic pH preferred
# T2 construct: gene ARCA
# T2 sequence (A5HNF3 entry or part of it): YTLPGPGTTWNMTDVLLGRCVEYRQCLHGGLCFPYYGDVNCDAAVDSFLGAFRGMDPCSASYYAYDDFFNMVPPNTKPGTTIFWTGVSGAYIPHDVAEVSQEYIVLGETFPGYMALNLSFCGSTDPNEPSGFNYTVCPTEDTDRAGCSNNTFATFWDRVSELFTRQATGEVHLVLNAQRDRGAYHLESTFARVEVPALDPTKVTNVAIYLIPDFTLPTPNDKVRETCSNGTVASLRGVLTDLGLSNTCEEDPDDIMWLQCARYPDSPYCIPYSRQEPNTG
# T1 sequence (A5HNF4 entry or part of it): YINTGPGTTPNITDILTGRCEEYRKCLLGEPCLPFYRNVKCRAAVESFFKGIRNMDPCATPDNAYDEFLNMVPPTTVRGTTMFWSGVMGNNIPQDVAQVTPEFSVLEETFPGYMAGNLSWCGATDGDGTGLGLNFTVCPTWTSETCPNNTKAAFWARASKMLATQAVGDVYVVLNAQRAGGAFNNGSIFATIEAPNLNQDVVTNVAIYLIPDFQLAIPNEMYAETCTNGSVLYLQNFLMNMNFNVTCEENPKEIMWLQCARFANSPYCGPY
Structure (SMILES),radiometric TLC of [32P]cADPR formation (recombinant ARCβ),radiometric TLC of [32P]cADPR formation (recombinant ARCα)
N=c1c2ncn3c2ncn1[C@@H]1O[C@H](COP(=O)(O)OP(=O)(O)OC[C@H]2O[C@@H]3[C@H](O)[C@@H]2O)[C@@H](O)[C@H]1O [cADPR],pH dependency of recombinant ARCα or ARCβ is shown,recombinant (Figure 3D) and endogenous (Figure 3C) sea urchin ARCs preferentially synthesize cADPR
NC(=O)c1ccc[n+]([C@@H]2O[C@H](COP(=O)([O-])OP(=O)(O)OC[C@H]3O[C@@H](n4cnc5c(N)ncnc54)[C@H](O)[C@@H]3O)[C@@H](O)[C@H]2O)c1 [β-NAD^+],pH dependency of recombinant ARCα or ARCβ is shown,recombinant (Figure 3D) and endogenous (Figure 3C) sea urchin ARCs preferentially synthesize cADPR
